Experimental data reported in patent EP4610269A1, “UROKINASE PLASMINOGEN ACTIVATOR SURFACE RECEPTOR (UPAR) LIGANDS FOR DIAGNOSTIC OR THERAPEUTIC USE” (3B Pharmaceuticals GmbH, priority 2024, dated 2025).
Like-named read-outs stand apart in the source and are kept apart here. Where a SMILES comes first, the peptide text is derived from it. Bridges are numbered along the chain shown (N, C = ends). [ ]: non-standard residue; d: D form. The star is where a group is joined. DOTA = O=C(O)CN1CCN(CC(=O)O)CCN(CC(=O)*)CCN(CC(=O)O)CC1; Pro(trans-4-F) = O=C(O)[C@@H]1C[C@@H](F)CN1; Phe(4-Cl) = N[C@@H](Cc1ccc(Cl)cc1)C(=O)O; Pro(cis-4-F) = O=C(O)[C@@H]1C[C@H](F)CN1; Pro(4R-NH2) = N[C@H]1CN[C@H](C(=O)O)C1; Dopa = N[C@@H](Cc1ccc(O)c(O)c1)C(=O)O; Hyp = O=C(O)[C@@H]1C[C@@H](O)CN1; NMeF = CN[C@@H](Cc1ccccc1)C(=O)O; hPhe = N[C@@H](CCc1ccccc1)C(=O)O; Pentanoyl(4-Me) = CC(C)CCC(=O)*; Cit = NC(=O)NCCC[C@H](N)C(=O)O; Butoxycarbonyl = CCCCOC(=O)*; Chg = N[C@H](C(=O)O)C1CCCCC1; Pip = O=C(O)[C@@H]1CCCCN1; Nle = CCCC[C@H](N)C(=O)O; Nva = CCC[C@H](N)C(=O)O; Pentanoyl = CCCCC(=O)*

Assays:
[1] = target: T1, uPAR-expressing HEC-265 human endometrial adenocarcinoma cells (Homo sapiens, UniProt Q03405); test: Competitive FACS binding assay; conditions: pIC50 category of FACS binding
T1 construct: Cell surface uPAR-expressing HEC-265 human endometrial adenocarcinoma cells; host or cells: HEC-265
Outline: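 Competitive displacement of a 10 nM biotinylated peptide from HEC-265 cells (1 h, 4 °C, PBS/1% BSA), detected via APC-streptavidin by flow cytometry. pIC50 from four-parameter logistic fit of median fluorescence versus concentration.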

[2] = target: T2, human uPAR (uPAR-Fc) (Homo sapiens, UniProt Q03405); test: Surface plasmon resonance (SPR) assay, single cycle kinetics; assay type: binding; conditions: pKD category for uPAR SPR activity assay, uPAR-Fc on Protein A-Chip, 25°C, read-out: pKD CAT (converted)
T2 construct: comprising amino acids Leu23-Arg303 according to UniProt entry Q03405.1; purchased R&D Systems 10378-UK-100
Outline: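 uPAR-Fc (Leu23-Arg303 extracellular domains, human IgG1 Fc) captured on Protein A chip to ~2000 RU; single-cycle kinetics at 25°C in HEPES running buffer pH 7.4 with 0.1% DMSO. KD from double-referenced sensorgrams fitted to 1:1 Langmuir model, reported as pKD.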

T1 sequence (Q03405 23-335): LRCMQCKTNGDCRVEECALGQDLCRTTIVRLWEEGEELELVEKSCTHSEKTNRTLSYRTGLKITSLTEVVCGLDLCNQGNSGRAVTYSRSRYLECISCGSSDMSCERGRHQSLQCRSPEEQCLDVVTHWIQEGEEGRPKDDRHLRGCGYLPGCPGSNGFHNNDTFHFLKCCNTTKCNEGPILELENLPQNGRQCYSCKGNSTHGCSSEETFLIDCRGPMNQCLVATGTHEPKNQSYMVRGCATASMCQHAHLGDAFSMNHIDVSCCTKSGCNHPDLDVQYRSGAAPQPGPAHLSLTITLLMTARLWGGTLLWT
T2 sequence (Q03405 23-303): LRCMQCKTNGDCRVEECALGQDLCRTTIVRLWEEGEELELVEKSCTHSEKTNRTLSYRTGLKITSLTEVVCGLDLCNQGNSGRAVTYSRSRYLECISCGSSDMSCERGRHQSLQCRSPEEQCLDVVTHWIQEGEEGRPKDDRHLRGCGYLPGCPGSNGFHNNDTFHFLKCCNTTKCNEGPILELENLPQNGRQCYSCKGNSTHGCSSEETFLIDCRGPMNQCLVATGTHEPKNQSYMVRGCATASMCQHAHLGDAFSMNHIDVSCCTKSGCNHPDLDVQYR

| IC50 [1] | Kd ([2]; single cycle kinetics) | Kd [2] | SMILES |
| --- | --- | --- | --- |
| ≥ 126 nM | > 100 nM |  | CCCC[C@@H]1NC(=O)[C@H](CCCNC(=N)N)NC(=O)[C@H](NC(=O)[C@H](CC(C)C)NC(=O)[C@H](CC(=O)O)NC(C)=O)CSSC[C@@H](C(N)=O)NC(=O)[C@H](CC(C)C)NC(=O)[C@H]([C@@H](C)CC)NC(=O)[C@H](C)NC(=O)[C@@H]2CCCN2C(=O)[C@H](Cc2ccccc2)NC(=O)[C@H](Cc2ccc(O)cc2)NC1=O [UPAR-412, Ac-Asp-Leu-[cys-Arg-Nle-Tyr-Phe-Pro-Ala-Ile-Leu-Cys]-NH2] (Ac-DL[dC]R[Nle]YFPAILC-NH2; disulfide 3-12) |
| ≤ 10 nM |  | < 1.58 nM | CC[C@H](C)[C@@H]1NC(=O)[C@@H]2C[C@@H](F)CN2C(=O)[C@@H]2CCCN2C(=O)[C@H](Cc2ccccc2)NC(=O)[C@H](Cc2ccc(O)cc2)NC(=O)[C@H](CCC(N)=O)NC(=O)[C@H](CCCNC(N)=O)NC(=O)[C@@H](NC(=O)CCC(C)C)CSSC[C@@H](C(N)=O)NC(=O)[C@H](CC(C)C)NC1=O [UPAR-220, iHex-[Cys-Cit-Gln-Tyr-Phe-Pro-4Tfp-Ile-Leu-Cys]-NH2] ({Pentanoyl(4-Me)}-C[Cit]QYFP[Pro(trans-4-F)]ILC-NH2; disulfide 1-10) |
| ≥ 126 nM |  | > 100 nM | CC[C@H](C)[C@@H]1NC(=O)[C@@H](C)NC(=O)[C@@H]2CCCN2C(=O)[C@H](CCc2ccccc2)NC(=O)[C@H](Cc2ccc(O)cc2)NC(=O)[C@H](CCC(N)=O)NC(=O)[C@H](CCCNC(N)=O)NC(=O)[C@@H](NC(=O)CCC(C)C)CSSC[C@@H](C(N)=O)NC(=O)[C@H](CC(C)C)NC1=O [UPAR-180, iHex-[Cys-Cit-Gln-Tyr-Hfe-Pro-ala-Ile-Leu-Cys]-NH2] ({Pentanoyl(4-Me)}-C[Cit]QY[hPhe]P[dA]ILC-NH2; disulfide 1-10) |
| 39.8 to 100 nM |  | 10 to 100 nM | CC[C@H](C)[C@@H]1NC(=O)[C@@H](C)NC(=O)[C@H](C)NC(=O)[C@H](Cc2ccccc2)NC(=O)[C@H](Cc2ccc(O)cc2)NC(=O)[C@H](CCC(N)=O)NC(=O)[C@H](CCCNC(N)=O)NC(=O)[C@@H](NC(=O)CCC(C)C)CSSC[C@@H](C(N)=O)NC(=O)[C@H](CC(C)C)NC1=O [UPAR-319, iHex-[Cys-Cit-Gln-Tyr-Phe-Ala-ala-Ile-Leu-Cys]-NH2] ({Pentanoyl(4-Me)}-C[Cit]QYFA[dA]ILC-NH2; disulfide 1-10) |
| ≤ 10 nM |  | < 1.58 nM | CCCCC(=O)N[C@H]1CSSC[C@@H](C(N)=O)NC(=O)[C@H](CCC)NC(=O)[C@H]([C@@H](C)CC)NC(=O)[C@H](CC(C)C)NC(=O)[C@@H]2CCCN2C(=O)[C@H](Cc2ccccc2)NC(=O)[C@H](Cc2ccc(O)cc2)NC(=O)[C@H](CCC(N)=O)NC(=O)[C@H](CCCNC(=N)N)NC1=O [UPAR-281, Pent-[Cys-Arg-Gln-Tyr-Phe-Pro-Leu-Ile-Nva-Cys]-NH2] (Pentanoyl-CRQYFPLI[Nva]C-NH2; disulfide 1-10) |
| ≤ 10 nM |  | 1.58 to 10 nM | CC[C@H](C)[C@@H]1NC(=O)[C@@H](C)NC(=O)[C@@H]2CCCN2C(=O)[C@H](Cc2ccccc2)NC(=O)[C@H](Cc2ccc(O)cc2)NC(=O)[C@H](CCC(N)=O)NC(=O)[C@H](CCCNC(N)=O)NC(=O)[C@@H](NC(=O)CCC(C)C)CSSC[C@@H](C(N)=O)NC(=O)[C@H](C(C)C)NC1=O [UPAR-184, iHex-[Cys-Cit-Gln-Tyr-Phe-Pro-ala-Ile-Val-Cys]-NH2] ({Pentanoyl(4-Me)}-C[Cit]QYFP[dA]IVC-NH2; disulfide 1-10) |
| 12.6 to 31.6 nM | 1.58 to 10 nM |  | CC[C@H](C)[C@@H]1NC(=O)[C@@H]2CCCCN2C(=O)[C@@H]2CCCN2C(=O)[C@H](Cc2ccccc2)NC(=O)[C@H](Cc2ccc(O)cc2)NC(=O)[C@H](CCC(N)=O)NC(=O)[C@H](CCCNC(N)=O)NC(=O)[C@@H](NC(=O)CCC(C)C)CSSC[C@@H](C(N)=O)NC(=O)[C@H](CC(C)C)NC1=O [UPAR-469, iHex-[Cys-Cit-Gln-Tyr-Phe-Pro-Pip-Ile-Leu-Cys]-NH2] ({Pentanoyl(4-Me)}-C[Cit]QYFP[Pip]ILC-NH2; disulfide 1-10) |
| ≤ 10 nM | 1.58 to 10 nM |  | CC[C@H](C)[C@@H]1NC(=O)[C@@H](CCCNC(=N)N)NC(=O)[C@@H]2CCCN2C(=O)[C@H](Cc2ccccc2)NC(=O)[C@H](Cc2ccc(O)cc2)NC(=O)[C@H](CCC(N)=O)NC(=O)[C@H](CCCNC(N)=O)NC(=O)[C@@H](NC(=O)CCC(C)C)CSSC[C@@H](C(N)=O)NC(=O)[C@H](CC(C)C)NC1=O [UPAR-357, iHex-[Cys-Cit-Gln-Tyr-Phe-Pro-arg-Ile-Leu-Cys]-NH2] ({Pentanoyl(4-Me)}-C[Cit]QYFP[dR]ILC-NH2; disulfide 1-10) |
| ≤ 10 nM |  | < 1.58 nM | CCCCC(=O)N[C@H]1CSSC[C@@H](C(N)=O)NC(=O)[C@H](CCC)NC(=O)[C@H]([C@@H](C)CC)NC(=O)[C@@H]2C[C@@H](N)CN2C(=O)[C@@H]2CCCN2C(=O)[C@H](Cc2ccccc2)NC(=O)[C@H](Cc2ccc(O)cc2)NC(=O)[C@H](CCCNC(=N)N)NC(=O)[C@H](CCCNC(=N)N)NC1=O [UPAR-313, Pent-[Cys-Arg-Arg-Tyr-Phe-Pro-Tap-Ile-Nva-Cys]-NH2] (Pentanoyl-CRRYFP[Pro(4R-NH2)]I[Nva]C-NH2; disulfide 1-10) |
| ≥ 126 nM | > 100 nM |  | CCCCC(=O)N[C@H]1CSSC[C@@H](C(N)=O)NC(=O)[C@H](CCC)NC(=O)[C@H]([C@@H](C)CC)NC(=O)[C@@H]2C[C@@H](O)CN2C(=O)[C@@H]2CCCN2C(=O)[C@H](Cc2ccccc2)N(C)C(=O)[C@H](Cc2ccc(O)cc2)NC(=O)[C@H](CCCCNC(=O)CN2CCN(CC(=O)O)CCN(CC(=O)O)CCN(CC(=O)O)CC2)NC(=O)[C@H](CCCNC(N)=O)NC1=O [UPAR-398, Pent-[Cys-Cit-Lys(DOTA)-Tyr-Nmf-Pro-Hyp-Ile-Nva-Cys]-NH2] (Pentanoyl-C[Cit]K(DOTA)Y[NMeF]P[Hyp]I[Nva]C-NH2; disulfide 1-10) |
| ≤ 10 nM |  | < 1.58 nM | CC[C@H](C)[C@@H]1NC(=O)[C@@H](C)NC(=O)[C@@H]2CCCN2C(=O)[C@H](Cc2ccccc2)NC(=O)[C@H](Cc2ccc(O)c(O)c2)NC(=O)[C@H](CCC(N)=O)NC(=O)[C@H](CCCNC(N)=O)NC(=O)[C@@H](NC(=O)CCC(C)C)CSSC[C@@H](C(N)=O)NC(=O)[C@H](CC(C)C)NC1=O [UPAR-144, iHex-[Cys-Cit-Gln-Dopa-Phe-Pro-ala-Ile-Leu-Cys]-NH2] ({Pentanoyl(4-Me)}-C[Cit]Q[Dopa]FP[dA]ILC-NH2; disulfide 1-10) |
| ≤ 10 nM |  | < 1.58 nM | CCCC[C@@H]1NC(=O)[C@H](CCCNC(=N)N)NC(=O)[C@@H](NC(=O)[C@@H](CC(C)C)NC(=O)[C@H](CC(=O)O)NC(C)=O)CSSC[C@@H](C(N)=O)NC(=O)[C@H](CC(C)C)NC(=O)[C@H]([C@@H](C)CC)NC(=O)[C@H](C)NC(=O)[C@@H]2CCCN2C(=O)[C@H](Cc2ccccc2)NC(=O)[C@H](Cc2ccc(O)cc2)NC1=O [UPAR-244, Ac-Asp-leu-[Cys-Arg-Nle-Tyr-Phe-Pro-Ala-Ile-Leu-Cys]-NH2] (Ac-D[dL]CR[Nle]YFPAILC-NH2; disulfide 3-12) |
| ≤ 10 nM | < 1.58 nM |  | CCCCC(=O)N[C@H]1CSSC[C@@H](C(N)=O)NC(=O)[C@H](CCC)NC(=O)[C@H]([C@@H](C)CC)NC(=O)[C@@H]2C[C@@H](N)CN2C(=O)[C@@H]2CCCN2C(=O)[C@H](Cc2ccccc2)NC(=O)[C@H](Cc2ccc(O)cc2)NC(=O)[C@H](CCCCNC(=O)CN2CCN(CC(=O)O)CCN(CC(=O)O)CCN(CC(=O)O)CC2)NC(=O)[C@H](CCCNC(N)=O)NC1=O [UPAR-377, Pent-[Cys-Cit-Lys(DOTA)-Tyr-Phe-Pro-Tap-Ile-Nva-Cys]-NH2] (Pentanoyl-C[Cit]K(DOTA)YFP[Pro(4R-NH2)]I[Nva]C-NH2; disulfide 1-10) |
| ≥ 126 nM |  | > 100 nM | CCCC[C@@H]1NC(=O)[C@H](CCCNC(=N)N)NC(=O)[C@@H](NC(=O)[C@H](CC(C)C)NC(=O)[C@H](CC(=O)O)NC(C)=O)CSSC[C@@H](C(N)=O)NC(=O)[C@H](CC(C)C)NC(=O)[C@H]([C@@H](C)CC)NC(=O)[C@H](C)NC(=O)[C@@H]2CCCN2C(=O)[C@H](Cc2ccccc2)NC(=O)[C@@H](Cc2ccc(O)cc2)NC1=O [UPAR-198, Ac-Asp-Leu-[Cys-Arg-Nle-tyr-Phe-Pro-Ala-Ile-Leu-Cys]-NH2] (Ac-DLCR[Nle][dY]FPAILC-NH2; disulfide 3-12) |

| SMILES | IC50 [1] | Kd ([2]; single cycle kinetics) | Kd [2] |
| --- | --- | --- | --- |
| CCCCOC(=O)N[C@H]1CSSC[C@@H](C(N)=O)NC(=O)[C@H](CCC)NC(=O)[C@H](C2CCCCC2)NC(=O)[C@@H]2C[C@@H](O)CN2C(=O)[C@@H]2C[C@H](F)CN2C(=O)[C@H](Cc2ccc(Cl)cc2)NC(=O)[C@H](Cc2ccc(O)cc2)NC(=O)[C@H](CCCCNC(=O)CN2CCN(CC(=O)O)CCN(CC(=O)O)CCN(CC(=O)O)CC2)NC(=O)[C@H](CCCNC(N)=O)NC1=O [UPAR-476, Butoc-[Cys-Cit-Lys(DOTA)-Tyr-Pcf-4Cfp-Hyp-Chg-Nva-Cys]-NH2] (Butoxycarbonyl-C[Cit]K(DOTA)Y[Phe(4-Cl)][Pro(cis-4-F)][Hyp][Chg][Nva]C-NH2; disulfide 1-10) | ≤ 10 nM | < 1.58 nM |  |
| CCCCOC(=O)N[C@H]1CSSC[C@@H](C(N)=O)NC(=O)[C@H](CCC)NC(=O)[C@H]([C@@H](C)CC)NC(=O)[C@@H]2C[C@@H](O)CN2C(=O)[C@@H]2C[C@H](F)CN2C(=O)[C@H](Cc2ccccc2)NC(=O)[C@H](Cc2ccc(O)cc2)NC(=O)[C@H](CCC(N)=O)NC(=O)[C@H]([C@@H](C)O)NC1=O [UPAR-358, Butoc-[Cys-Thr-Gln-Tyr-Phe-4Cfp-Hyp-Ile-Nva-Cys]-NH2] (Butoxycarbonyl-CTQYF[Pro(cis-4-F)][Hyp]I[Nva]C-NH2; disulfide 1-10) | ≤ 10 nM | < 1.58 nM |  |
